These results are taken from patent US10568900B1, “Androgen effectors” (priority 2013, dated 2020).

Entries after “also recorded” stand apart in the source; their conditions may differ. Like-named read-outs stand apart in the source and are kept apart here.

Series [1] addresses T1, 5-alpha-reductase (Rattus norvegicus, UniProt P24008).
T1 construct: in microsomal homogenized rat livers; from tissue; host or cells: rat liver microsomes
T1 sequence (P24008 1-259): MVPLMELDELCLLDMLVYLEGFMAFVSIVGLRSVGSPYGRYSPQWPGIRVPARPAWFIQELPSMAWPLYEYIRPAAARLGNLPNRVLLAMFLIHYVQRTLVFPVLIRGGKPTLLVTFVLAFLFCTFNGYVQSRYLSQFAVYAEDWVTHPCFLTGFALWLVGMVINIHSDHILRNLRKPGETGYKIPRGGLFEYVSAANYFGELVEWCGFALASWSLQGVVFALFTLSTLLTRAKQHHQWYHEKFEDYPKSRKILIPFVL
As to the kind of experiment: 5-alpha-reductase activity, conversion of testosterone to dihydrotestosterone in microsomal homogenized rat livers. Type of series: biochemical. The text has this:
Finasteride (MK906 or Proscar) was used as the positive control inhibitor.

Series [2] addresses T2, androgen receptor (AR) (Rattus norvegicus, UniProt P15207).
T2 construct: rat prostatic cytosol as a source of androgen receptors; from tissue; host or cells: rat prostate cytosol
T2 sequence (P15207 1-902): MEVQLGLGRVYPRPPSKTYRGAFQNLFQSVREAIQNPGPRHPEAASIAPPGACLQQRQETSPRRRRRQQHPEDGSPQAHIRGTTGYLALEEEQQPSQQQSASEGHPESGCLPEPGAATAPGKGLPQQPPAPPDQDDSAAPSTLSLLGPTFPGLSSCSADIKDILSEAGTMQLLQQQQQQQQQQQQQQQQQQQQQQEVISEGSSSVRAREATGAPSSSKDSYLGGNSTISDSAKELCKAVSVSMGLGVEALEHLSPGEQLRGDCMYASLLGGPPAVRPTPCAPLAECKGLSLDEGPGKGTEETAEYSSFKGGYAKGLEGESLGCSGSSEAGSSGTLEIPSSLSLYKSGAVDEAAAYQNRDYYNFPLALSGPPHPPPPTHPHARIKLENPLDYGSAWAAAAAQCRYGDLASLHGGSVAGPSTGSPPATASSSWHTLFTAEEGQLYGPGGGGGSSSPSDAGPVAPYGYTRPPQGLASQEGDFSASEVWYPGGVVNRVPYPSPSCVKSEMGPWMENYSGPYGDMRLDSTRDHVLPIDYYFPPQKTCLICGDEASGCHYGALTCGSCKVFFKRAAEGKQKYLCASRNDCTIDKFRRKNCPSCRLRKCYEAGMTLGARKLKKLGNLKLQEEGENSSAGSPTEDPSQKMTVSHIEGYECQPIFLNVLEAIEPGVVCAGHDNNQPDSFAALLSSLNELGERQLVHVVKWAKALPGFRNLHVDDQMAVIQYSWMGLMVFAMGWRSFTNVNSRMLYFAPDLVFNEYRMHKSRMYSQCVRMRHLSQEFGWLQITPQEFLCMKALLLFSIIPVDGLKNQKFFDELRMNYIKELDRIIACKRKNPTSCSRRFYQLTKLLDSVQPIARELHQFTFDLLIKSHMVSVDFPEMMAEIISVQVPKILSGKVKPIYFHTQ
As to the kind of experiment: Androgen Receptor Binding Assay (rat prostatic cytosol), displacement of radiolabeled testosterone. An excerpt: The Androgen Receptor Binding Assay in rat prostatic cytosol as a source of androgen receptors identifies chemicals that have the potential to interact with the androgen receptor (AR) in vitro. […] The biological action of androgens is mediated through their interaction with the AR; androgens have no hormonal activity in the absence of a functional AR. Due to a high degree of DNA sequence conservation, substances that bind the AR from rats are presumed to be capable of binding the AR in humans. (Kelce, 1998; Betney, 2003). This screening assay measures the receptor-binding affinity of chemicals by evaluating their ability to displace a bound reference androgen, showing the degree of competition for normal androgen binding and activity, either acting as an agonist or antagonist (which is not discerned by the assay).

Series [3] addresses T3, human androgen receptor (hAR) (Homo sapiens, UniProt P10275).
T3 construct: expressed in transfected cells; host or cells: recombinant yeast strain BJ1991 PGKhAR
T3 sequence (P10275 1-920): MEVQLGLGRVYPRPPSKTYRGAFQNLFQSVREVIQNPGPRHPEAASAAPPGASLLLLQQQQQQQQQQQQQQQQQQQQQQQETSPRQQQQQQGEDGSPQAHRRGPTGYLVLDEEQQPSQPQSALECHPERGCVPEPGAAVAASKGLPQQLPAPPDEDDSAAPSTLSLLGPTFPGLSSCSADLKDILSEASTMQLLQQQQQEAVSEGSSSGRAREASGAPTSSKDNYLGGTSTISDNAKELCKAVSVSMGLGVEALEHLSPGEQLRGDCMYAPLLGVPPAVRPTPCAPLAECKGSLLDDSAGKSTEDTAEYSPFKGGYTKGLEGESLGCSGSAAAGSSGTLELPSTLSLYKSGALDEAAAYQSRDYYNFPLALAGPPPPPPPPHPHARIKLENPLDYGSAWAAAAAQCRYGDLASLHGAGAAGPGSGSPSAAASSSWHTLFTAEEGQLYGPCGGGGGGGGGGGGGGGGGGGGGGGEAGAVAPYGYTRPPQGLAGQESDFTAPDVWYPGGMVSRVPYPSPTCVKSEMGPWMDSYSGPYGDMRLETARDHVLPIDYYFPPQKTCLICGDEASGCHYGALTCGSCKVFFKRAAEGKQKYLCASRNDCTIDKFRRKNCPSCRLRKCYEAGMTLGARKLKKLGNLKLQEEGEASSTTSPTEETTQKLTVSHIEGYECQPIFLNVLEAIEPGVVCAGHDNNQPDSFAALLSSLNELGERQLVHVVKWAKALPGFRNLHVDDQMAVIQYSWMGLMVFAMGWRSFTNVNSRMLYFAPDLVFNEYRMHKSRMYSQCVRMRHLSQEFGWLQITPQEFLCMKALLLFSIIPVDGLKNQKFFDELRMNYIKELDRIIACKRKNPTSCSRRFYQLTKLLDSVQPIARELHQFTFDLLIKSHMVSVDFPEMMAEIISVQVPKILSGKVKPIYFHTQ
As to the kind of experiment: Human Androgen Receptor (hAR) assay in recombinant yeast strain BJ1991 PGKhAR. The series is classed as cell-based. An excerpt:
Human Androgen Receptor Assay (hAR) in recombinant yeast strain BJ1991 PGKhAR which contains the human androgen receptor (hAR) gene and a built-in color-indicator to androgenicity via an androgen response element (ARE) which is linked to a gene encoding beta-galactosidase, which hydrolyses end terminal B-galactopyranosyl residues on a chlorophenol red-B-D-galactopyranoside releasing colored indicator, chlorophenol red. Thus, test solutions turn further red with androgenicity.

Series [4] relates to yeast cells. The settings on record: cited from earlier work.
The conditions of series [5]: cited from earlier work.
For series [6], the target named is T4, ERβ (Homo sapiens, UniProt Q92731).
T4 construct: host or cells: yeast cells (cited work)
Conditions: cited from earlier work.

For series [7], the target named is T5, ERα (Homo sapiens, UniProt P03372).
T5 construct: host or cells: yeast cells (cited work)
T5 sequence (P03372 1-595): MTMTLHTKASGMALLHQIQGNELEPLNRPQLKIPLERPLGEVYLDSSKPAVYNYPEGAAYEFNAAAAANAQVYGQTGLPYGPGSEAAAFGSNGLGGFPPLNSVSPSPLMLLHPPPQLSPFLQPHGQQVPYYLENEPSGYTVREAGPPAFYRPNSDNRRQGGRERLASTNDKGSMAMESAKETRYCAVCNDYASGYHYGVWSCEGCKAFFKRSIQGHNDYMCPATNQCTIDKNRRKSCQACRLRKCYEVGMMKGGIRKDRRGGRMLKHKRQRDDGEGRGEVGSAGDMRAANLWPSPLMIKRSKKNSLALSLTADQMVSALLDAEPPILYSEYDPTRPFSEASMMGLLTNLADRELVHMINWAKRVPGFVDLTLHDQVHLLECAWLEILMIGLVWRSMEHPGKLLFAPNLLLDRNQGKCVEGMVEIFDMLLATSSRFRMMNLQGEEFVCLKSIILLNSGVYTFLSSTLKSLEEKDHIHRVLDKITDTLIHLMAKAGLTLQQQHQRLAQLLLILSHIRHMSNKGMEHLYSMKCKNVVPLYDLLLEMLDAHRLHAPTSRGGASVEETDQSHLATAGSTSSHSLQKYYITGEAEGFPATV
The settings on record: cited from earlier work.

Where [8] appears, read: rat liver microsomes, read-out: *50% Inhibition (converted).
The mark [9] stands for this setting: tested at 500 μg/ml, rat prostatic cytosol.

T4 sequence (Q92731 whole entry, species assumed): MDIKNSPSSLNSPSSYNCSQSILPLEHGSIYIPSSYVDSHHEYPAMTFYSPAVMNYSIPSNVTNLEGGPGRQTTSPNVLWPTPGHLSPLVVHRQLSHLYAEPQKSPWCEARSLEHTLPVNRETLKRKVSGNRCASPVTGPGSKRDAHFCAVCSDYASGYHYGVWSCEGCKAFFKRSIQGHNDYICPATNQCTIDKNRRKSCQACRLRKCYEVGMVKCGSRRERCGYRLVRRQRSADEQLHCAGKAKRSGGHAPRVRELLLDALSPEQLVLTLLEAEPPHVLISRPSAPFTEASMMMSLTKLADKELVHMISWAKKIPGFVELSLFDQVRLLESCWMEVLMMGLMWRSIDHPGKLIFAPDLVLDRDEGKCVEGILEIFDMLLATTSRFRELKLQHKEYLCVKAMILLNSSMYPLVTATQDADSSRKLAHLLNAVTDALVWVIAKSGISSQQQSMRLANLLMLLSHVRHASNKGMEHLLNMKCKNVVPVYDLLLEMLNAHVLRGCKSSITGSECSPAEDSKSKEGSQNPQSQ

What is called inhibition is the share of the control response that was lost under treatment. Take `CC1(C)C=Cc2c(O)ccc(C3=Cc4ccc(O)cc4OC3)c2O1` [#1 Glabrene, Glabrene]: the “5-alpha-reductase inhibition, in words” value in series [1] is recorded as “significant 5ARI activity; also recorded: potent dihydrotestosterone reductase inhibitors”. In series [1] (listed as #1), the “5-alpha-reductase inhibition, in words” value is on record as “interfere with the activity of 5-alpha-reductase”. Moreover, in series [1] (read-out: IC50 (5ARI) (converted)), the IC50 is 15.5 µM. In addition, in series [2] (tested at 125 μg/ml, rat prostatic cytosol, read-out: *Specific Binding % Inhibition), the inhibition at 125 µg/mL turned out to be 21%. In addition, in series [3] (tested at 25 μg/ml), the “*hAG (agonist)” value is given as “Inactive” and the “*hAT (antagonist)” value was “Inactive”.
For `CC1(C)C=Cc2c(ccc3c2OC[C@@H](c2ccc(O)cc2O)C3)O1` [#4 Glabridin, Glabridin], the “concentration toxic to yeast cells” value in series [4] is “above 1×10^−4 M”. Further, in series [5], the “solubility in water, in words” value is on record as “insoluble in water”. Further, the results for the “5-alpha-reductase inhibition, in words” value in series [1] and in series [1] (listed as #4) were “significant 5ARI activity; also recorded: potent dihydrotestosterone reductase inhibitors” and “interfere with the activity of 5-alpha-reductase”, respectively. For the same compound, the IC50 in series [1] (setting [8]) was 89.4 µM. Moreover, the “estrogenic response (agonism), in words” value in series [6] (1×10^−7 to 1×10^−4 M) and in series [7] (1×10^−7 to 1×10^−4 M) was “does not exert any estrogenic response” in each case. The “ERβ antagonism, in words” value in series [6] is given as “did not have antagonistic properties”. The “androgen receptor binding / interference with testosterone binding, in words” value (“androgen receptor binding / interference” for short) in series [2] was “does not interfere with normal testosterone to androgen receptor binding”. The inhibition at 500 µg/mL in series [2] (tested at 500 μg/ml, rat prostatic cytosol, read-out: *Specific Binding % Inhibition) is 0%. Further, the “*hAG (agonist)” value in series [3] (tested at 5 μg/ml) is “Inactive”. Further, in series [3] (tested at 5 μg/ml), the “*hAT (antagonist)” value is “Inactive”. Further, the “inhibition of the E2 response” value in series [7] (at 6×10^−6 M, without being toxic towards yeast cells) was approximately 80%. Besides, the “ERα antagonism, in words” value in series [7] is “ERα-selective antagonist”. Moreover, the “reduction of estrogenic E2” value in series [7] is listed as 80%.
Take `C=CC(C)(C)c1cc(/C=C/C(=O)c2ccc(O)cc2)c(OC)cc1O` [#5 Licochalcone A, Licochalcone A]: the figures for the “5-alpha-reductase inhibition, in words” value in series [1] (listed as #5), in series [1] (listed as Licochalcone A) and in series [1] (listed as licochalcone A) were “interfere with the activity of 5-alpha-reductase”, “potent dihydrotestosterone reductase inhibitors” and “significant 5ARI activity”, respectively. Moreover, the “*50% Inhibition” value in series [1] (rat liver microsomes) turned out to be 7 µg/mL. Further, the “*Specific Binding % Inhibition” value in series [2] (setting [9]) is recorded as 21%. In series [3] (tested at 5 μg/ml), the “*hAG (agonist)” value is given as “Inactive”. Besides, in series [3] (tested at 5 μg/ml), the “*hAT (antagonist)” value is given as “Inactive”.
In the case of `C[C@@H](CC[C@@]1(O)O[C@H]2C[C@H]3[C@@H]4CC=C5C[C@@H](O[C@@H]6O[C@H](CO)[C@@H](O)[C@H](O[C@@H]7O[C@H](CO)[C@@H](O)[C@H](O)[C@H]7O)[C@H]6O[C@@H]6O[C@@H](C)[C@H](O)[C@@H](O)[C@H]6O)CC[C@]5(C)[C@H]4CC[C@]3(C)[C@H]2[C@@H]1C)CO[C@@H]1O[C@H](CO)[C@@H](O)[C@H](O)[C@H]1O` [#9 Protogracillin, Protogracillin], in series [1], the “5-alpha-reductase inhibition, in words” value is recorded as “did not inhibit 5AR”. The “androgen receptor binding / interference” value in series [2] (listed as Protogracillin) was “does not interfere with normal testosterone binding to receptor”. Also, the “androgen receptor binding / interference” value in series [2] (listed as protogracillin) is “did not interfere with regular testosterone receptor binding”. For the same compound, the “*Specific Binding % Inhibition” value in series [2] (setting [9]) is 0%. Besides, in series [3], the “hAR assay activity, in words” value was “testosterone agonist activity” and the “receptor affinity relative to cyproterone's binding affinity” value was 1/200. Besides, in series [3] (tested at 100 μg/ml), the “*hAG (agonist)” value is listed as “Active (2)” and the “*hAT (antagonist)” value was “Inactive”.
In the case of `CC(C)(C)NC(=O)[C@H]1CC[C@H]2[C@@H]3CC[C@H]4NC(=O)C=C[C@]4(C)[C@H]3CC[C@]12C` [Finasteride Proscar Control, Finasteride, reference compound], the IC50 in series [1] (positive control, read-out: IC50 (converted)) is approximately 0.188 µM; in series [1] (setting [8]) it was 0.188 µM.
`CC1=CCC(C(C)(C)O)CC1` (stereo not drawn) [alpha-terpineol]: the “5-alpha-reductase inhibition, in words” value in series [1] is given as “significant 5ARI activity”.
As for “Leucoanthocyanidin [#6 Leucoanthocyanidin]”, the “5-alpha-reductase inhibition, in words” value in series [1] is given as “significant 5ARI activity”; in series [1] (listed as #6), “interfere with the activity of 5-alpha-reductase”. Further, the “*50% Inhibition” value in series [1] (rat liver microsomes) is 30 µg/mL. Further, the “*Specific Binding % Inhibition” value in series [2] (setting [9]) turned out to be 28%. The “*hAG (agonist)” value in series [3] (tested at 500 μg/ml) is “Clear”. In addition, the “*hAT (antagonist)” value in series [3] (tested at 500 μg/ml) is “Clear”.
